Measurements taken from US20240344145A1, “PHARMACOGENOMICS SCORE TO MAKE DECISIONS ON THERAPY AUGMENTATION IN AML” (University of Florida Research Foundation, Incorporated, priority 2021, published 2024).

System: ara-C metabolic pathway genes
Assay: Association of ara-C pathway SNP genotypes with MRD1, EFS and OS in AML02 (logistic regression and Cox models; also within LDAC and HDAC arms)
Set-up: species or system human
Conditions: within arm of AML02
Source text: Genomic DNA from patients enrolled in the multi-site St. Jude AML02 trial was genotyped for 155 SNPs in 16 genes of relevance to ara-C pharmacology using sequenom iPlex platform that uses MALDI-TOF based chemistry at University of Minnesota, Biomedical Genomics Center. SNPs were selected based on previously reported studies. For SNPs lacking literature on genetic variation, SNPs were selected to capture LD blocks (European and African ancestry) on a gene. Of 155 SNPs, 1 SNP was excluded due to low call rate (<90%), 47 SNPs were excluded due to minimum allele frequency of less than 5%, 11 SNPs were excluded due to high LD (r^2>0.9) with other SNPs; two SNPs were excluded because of deviation from Hardy-Weinberg equilibrium. Genotype for the COG-AAML0531 cohort for the selected SNPs was obtained using sequenom platform or TaqMan genotyping assays, and for a few SNPs was extracted from the data available on Illumina 2.5 Omni array. Genotype calls from multiple platforms were confirmed across multiple samples randomly collected from the cohort.
SNP genotype groups in three different modes of inheritance (additive, dominant, and recessive) were tested for association with MRD1 using logistic regression models. Odds ratio (OR) and 95% confidence interval (CI) were calculated for each test. SNPs with association P-value<0.05 were considered significant. Cox-proportional hazard models were used to evaluate association of genotype groups with EFS or OS. Hazard ratio (HR) and 95% CI were calculated for each test. p-value<0.05 was considered statistically significant. Given initial risk group assignments are well-established prognostic factors associated with outcome, outcome association analysis of SNPs with and without adjusting for risk group was also performed to identify SNPs that are associated with outcome independent of risk group.
SNPs with p<0.15 in risk-adjusted univariate evaluation with clinical endpoints (MRD1, EFS, and OS) were tested for all possible combinations with a maximum of three SNPs per model in multivariable logistic regression models for association with MRD1 and Cox-proportional hazard models for association with EFS and OS. Analysis for up to 3 SNP combinations was restricted due to computational challenges as increasing the maximum number of SNPs per model drastically increases the number of models as 1000 permutations were run for each model. Models were ordered according to their Bayesian Information Criterion (BIC) and weight in favor of each model. One thousand permutation tests were performed for each model to determine statistical significance. The six unique SNPs from the most significant models for EFS and MRD1 were included in the development of the ACS10 score as described in the results section.
The multicenter AML02 clinical trial randomly assigned subjects to receive low dose ara-C (LDAC: 100 mg/m^2; n=91 patients) or high dose ara-C(HDAC: 3 g/m^2; n=75 patients) in combination with daunorubicin and etoposide as the first course of chemotherapy as described above in patient cohort section. Thus, the association of SNPs with outcome within each arm separately was also explored (Table 5).

[1] = rs4742 (DCTD, WT T, VAR C), MOI R
[2] = rs5841 (NME4, WT C, VAR T), MOI D
[3] = rs324148 (SLC29A1, WT C, VAR T), MOI A
[4] = rs407983 (NME4, WT G, VAR C), MOI A
[5] = rs507964 (SLC29A1, WT C, VAR A), MOI R
[6] = rs580032 (CDA, WT T, VAR G), MOI D
[7] = rs602950 (CDA, WT T, VAR C), MOI A
[8] = rs747199 (SLC29A1, WT C, VAR G), MOI D
[9] = rs818196 (CDA, WT G, VAR C), MOI D
[10] = rs1048977 (CDA, WT C, VAR T), MOI D
[11] = rs1138729 (RRM2, WT A, VAR G), MOI D
[12] = rs2072671 (CDA, WT A, VAR C), MOI A
[13] = rs2396243 (SLC29A1, WT G, VAR A), MOI D
[14] = rs3088062 (CMPK1, WT T, VAR C), MOI A
[15] = rs3743162 (SLC28A1, WT C, VAR T), MOI D
[16] = rs3829540 (NME3, WT G, VAR A), MOI D
[17] = rs3925058 (CMPK1, WT T, VAR C), MOI D
[18] = rs4247411 (SLC28A1, WT C, VAR T), MOI D
[19] = rs4271567 (SLC28A1, WT T, VAR A), MOI R
[20] = rs4643786 (DCK, WT T, VAR C), MOI R

Nc1ccn([C@@H]2O[C@H](CO)[C@@H](O)[C@@H]2O)c(=O)n1 [HDAC, cytarabine]
EFS HR (95% CI) [1]: 1.53 (0.98-2.4)
MRD1 OR (95% CI) [1]: 1.08 (0.49-2.38)
OS HR (95% CI) [1]: 1.49 (0.91-2.46)
EFS HR (95% CI) [2]: 0.86 (0.6-1.23)
MRD1 OR (95% CI) [2]: 0.48 (0.28-0.81)
OS HR (95% CI) [2]: 1.15 (0.74-1.81)
EFS HR (95% CI) [3]: 0.88 (0.52-1.5)
MRD1 OR (95% CI) [3]: 1.08 (0.55-2.1)
OS HR (95% CI) [3]: 0.75 (0.39-1.46)
EFS HR (95% CI) [4]: 1.1 (0.7-1.72)
MRD1 OR (95% CI) [4]: 1.43 (0.76-2.67)
OS HR (95% CI) [4]: 1.05 (0.62-1.8)
EFS HR (95% CI) [5]: 1.71 (1.12-2.62)
MRD1 OR (95% CI) [5]: 1.01 (0.51-2.01)
OS HR (95% CI) [5]: 1.37 (0.8-2.36)
EFS HR (95% CI) [6]: 0.45 (0.22-0.92)
MRD1 OR (95% CI) [6]: 0.91 (0.49-1.66)
OS HR (95% CI) [6]: 0.58 (0.28-1.19)
EFS HR (95% CI) [7]: 1.25 (0.74-2.09)
MRD1 OR (95% CI) [7]: 0.69 (0.32-1.48)
OS HR (95% CI) [7]: 0.86 (0.44-1.69)
EFS HR (95% CI) [8]: 0.97 (0.66-1.42)
MRD1 OR (95% CI) [8]: 1.37 (0.82-2.29)
OS HR (95% CI) [8]: 1.1 (0.72-1.71)
EFS HR (95% CI) [9]: 0.66 (0.45-0.98)
MRD1 OR (95% CI) [9]: 0.9 (0.56-1.47)
OS HR (95% CI) [9]: 0.73 (0.47-1.14)
EFS HR (95% CI) [10]: 0.9 (0.63-1.28)
MRD1 OR (95% CI) [10]: 1.09 (0.67-1.78)
OS HR (95% CI) [10]: 1.44 (0.7-2.98)
EFS HR (95% CI) [11]: 1.14 (0.78-1.66)
MRD1 OR (95% CI) [11]: 1.04 (0.61-1.77)
OS HR (95% CI) [11]: 1.42 (0.93-2.17)
EFS HR (95% CI) [12]: 1.18 (0.7-1.99)
MRD1 OR (95% CI) [12]: 0.73 (0.34-1.56)
OS HR (95% CI) [12]: 0.89 (0.46-1.75)
EFS HR (95% CI) [13]: 0.94 (0.63-1.39)
MRD1 OR (95% CI) [13]: 1.39 (0.84-2.31)
OS HR (95% CI) [13]: 0.87 (0.54-1.4)
EFS HR (95% CI) [14]: 1.41 (0.8-2.51)
MRD1 OR (95% CI) [14]: 1.16 (0.48-2.81)
OS HR (95% CI) [14]: 1.48 (0.75-2.94)
EFS HR (95% CI) [15]: 1.65 (1.15-2.36)
MRD1 OR (95% CI) [15]: 1.89 (1.15-3.11)
OS HR (95% CI) [15]: 1.43 (0.94-2.18)
EFS HR (95% CI) [16]: 0.71 (0.47-1.09)
MRD1 OR (95% CI) [16]: 0.82 (0.49-1.37)
OS HR (95% CI) [16]: 0.51 (0.27-0.93)
EFS HR (95% CI) [17]: 0.81 (0.56-1.18)
MRD1 OR (95% CI) [17]: 1.41 (0.79-2.53)
OS HR (95% CI) [17]: 0.76 (0.49-1.18)
EFS HR (95% CI) [18]: 1.69 (1.08-2.64)
MRD1 OR (95% CI) [18]: 1.91 (1.08-3.37)
OS HR (95% CI) [18]: 1.72 (1-2.95)
EFS HR (95% CI) [19]: 0.52 (0.29-0.95)
MRD1 OR (95% CI) [19]: 0.66 (0.35-1.23)
OS HR (95% CI) [19]: 0.54 (0.26-1.11)
EFS HR (95% CI) [20]: 1.15 (0.63-2.09)
MRD1 OR (95% CI) [20]: 0.87 (0.36-2.12)
OS HR (95% CI) [20]: 1.38 (0.75-2.56)
